Experimental data taken from US11596608B2, “Formulation” (INDEX PHARMACEUTICALS AB, priority 2018, dated 2023).
Each block holds one molecule with its values, some of them ahead of it. Oligonucleotides are written 5' to 3', each unit as a sugar letter and its base; * is a phosphorothioate linkage, no mark a phosphodiester; rarer units and linkages stand in square brackets, end groups in braces. Plain capitals give the bases only. d = 2'-deoxy (DNA)

Columns and labels:
[1] = Cobitolimod suspension limit in Capryol only; type: physicochemical; settings: corresponding to 13-14% cobitolimod in Capryol PGMC
Description: The cobitolimod suspension limit in Capryol only was assessed by repeating the steps of (i) adding the API to Capryol, (ii) spatula stirring and (iii) sonication, until the suspension became unworkable due to, for example, being too viscous, agglomerates forming that would not break down etc.

[2] = Chemical stability assessment of core formulations (HPLC assay and related substances); type: physicochemical; settings: reference raw material
Description: The bulk mixes were assessed physically and chemically initially and following four weeks of storage at 40° C./75% RH. For the physical assessments, samples were assessed visually for appearance changes, focusing on colour and physical behaviour.
The samples were run on an X Bridge BEH C18, 2.5 μm, 4.6 mm×50 mm column with a flow rate of 0.4 ml/min at 60° C., a run time of 60 minutes and a detection wavelength of 260 nm. The sample injection volume was […] with a sampler temperature of 5° C. The mobile phase compositions were as follows: • Mobile phase A 3% Acetonitrile in 0.2% TEA, 1% HFIP, • Mobile phase B 12% Acetonitrile in 0.2% TEA, 1% HFIP, • Mobile phase C Acetonitrile, • Mobile phase D water.

[3] = tested on: chronic active UC; settings: cited from earlier work
[4] = tested on: UC; settings: versus placebo; cited from earlier work
[5] = observed during manufacture of Example 3 formulation
Description: The vials were then high shear mixed for a minimum of 2×2 minutes then allowed to settle, all had visible insoluble material, therefore the samples were then high shear mixed for a further 2 minutes and visually assessed before samples taken for pH analysis. pH analysis involved centrifuging the sample at 14000 RPM for 10 minutes to separate out the insoluble material and then diluting 1 g of the clear supernatant with 3 g of deionised water, mixing thoroughly and measuring the pH.

Molecule: 5′-G*G*A*ACAGTTCGTCCAT*G*G*C-3′ (DNA dG*dG*dA*dAdCdAdGdTdTdCdGdTdCdCdAdT*dG*dG*dC) [cobitolimod]
limit of suspendability expressed per capsule [1]: approx. 53 mg cobitolimod/capsule | impurity level [2]: 5.3 area % | safety and tolerability ([3]; human, in vivo): safe and well tolerated | clinical efficacy ([3]; patients with chronic active UC): effective to induce clinical response and remission

Molecule: vedolizumab: α4β7 integrin inhibitor approved for the treatment of UC
inducing and maintaining clinical response, clinical remission, and mucosal healing [4]: more effective than placebo

solubility of tromethamine in Capryol PGMC [5]: some insolubility
Molecule: NC(CO)(CO)CO [tromethamine]
